Numbered stars: 1 amine (or outer) side, 2 acyl side, 3 side chain; on linkers, the order of the positions; unused ones are H or OH. Square brackets hold non-standard residues; d marks the D form. Peptide text beside a SMILES is read from it. * marks the point of attachment. C18 diacid = O=C(O)CCCCCCCCCCCCCCCCC(=O)*; C16 diacid = O=C(O)CCCCCCCCCCCCCCC(=O)*; γGlu = O=C(O)[C@H](CCC(=O)[*:2])N[*:1]; Conj‑Neu‑C18DA = not defined here; NMeL = CN[C@@H](CC(C)C)C(=O)O; hSer = N[C@@H](CCO)C(=O)O; Nle = CCCC[C@H](N)C(=O)O; AEEA = NCCOCCOCC(=O)O; βAla = NCCC(=O)O
Key:
Experiment in all cases: IP3 assay (inositol trisphosphate, 3H-myoinositol) in transiently transfected COS-7 cells
Assay type in all cases: cell-based
[1] = target: T1, hNK2R (Homo sapiens, UniProt P21452); details: for EC50 / hNK2R, IP3 Efficacy: COS-7 cells; for EC50: 0.2% ovalbumin buffer; for hNK2R, IP3 Efficacy: figure legends: percent of 10^-6 M NKA
T1 construct: host or cells: COS-7
T1 sequence (P21452 1-398): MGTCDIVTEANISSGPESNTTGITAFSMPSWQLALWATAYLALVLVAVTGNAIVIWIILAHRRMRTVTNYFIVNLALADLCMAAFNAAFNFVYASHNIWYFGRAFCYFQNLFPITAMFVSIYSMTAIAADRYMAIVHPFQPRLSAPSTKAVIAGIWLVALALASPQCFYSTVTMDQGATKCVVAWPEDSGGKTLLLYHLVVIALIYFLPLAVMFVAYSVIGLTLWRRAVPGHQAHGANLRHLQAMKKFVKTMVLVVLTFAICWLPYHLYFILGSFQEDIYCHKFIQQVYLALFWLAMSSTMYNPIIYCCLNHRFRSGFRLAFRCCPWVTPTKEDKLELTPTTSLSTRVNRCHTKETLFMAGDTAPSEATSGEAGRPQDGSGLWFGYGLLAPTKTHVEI
How it was run: (§1)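 COS-7 cells were transiently transfected with receptor plasmid and labelled with ³H-myo-inositol. Cells were lysed in formic acid, and ³H-inositol phosphates were captured on SPA YSI beads and counted.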

[2] = target: T2, hNK1R (Homo sapiens, UniProt P25103); details: for hNK1R, IP3 Efficacy / EC50: COS-7 cells; for hNK1R, IP3 Efficacy: figure legends: percent of 10^-6 M NKA; for EC50: 0.2% ovalbumin buffer
T2 construct: host or cells: COS-7
T2 sequence (P25103 whole entry): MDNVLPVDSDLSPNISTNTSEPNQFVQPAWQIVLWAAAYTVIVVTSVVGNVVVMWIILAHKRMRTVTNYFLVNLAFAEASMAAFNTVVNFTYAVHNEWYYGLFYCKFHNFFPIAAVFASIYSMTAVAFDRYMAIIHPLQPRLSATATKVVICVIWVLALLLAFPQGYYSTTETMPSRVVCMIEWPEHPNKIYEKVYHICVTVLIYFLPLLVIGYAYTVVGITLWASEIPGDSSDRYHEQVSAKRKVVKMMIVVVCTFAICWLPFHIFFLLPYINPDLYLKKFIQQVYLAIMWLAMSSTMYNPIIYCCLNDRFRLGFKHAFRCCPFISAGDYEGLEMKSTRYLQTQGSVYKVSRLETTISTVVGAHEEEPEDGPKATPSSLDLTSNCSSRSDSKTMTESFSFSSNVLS
How it was run: as §1

[3] = target: T3, hNK3R (Homo sapiens, UniProt P29371); details: for hNK3, IP3 Efficacy: figure legends: percent of 10^-6 M NKA
T3 construct: host or cells: COS-7
T3 sequence (P29371 1-465): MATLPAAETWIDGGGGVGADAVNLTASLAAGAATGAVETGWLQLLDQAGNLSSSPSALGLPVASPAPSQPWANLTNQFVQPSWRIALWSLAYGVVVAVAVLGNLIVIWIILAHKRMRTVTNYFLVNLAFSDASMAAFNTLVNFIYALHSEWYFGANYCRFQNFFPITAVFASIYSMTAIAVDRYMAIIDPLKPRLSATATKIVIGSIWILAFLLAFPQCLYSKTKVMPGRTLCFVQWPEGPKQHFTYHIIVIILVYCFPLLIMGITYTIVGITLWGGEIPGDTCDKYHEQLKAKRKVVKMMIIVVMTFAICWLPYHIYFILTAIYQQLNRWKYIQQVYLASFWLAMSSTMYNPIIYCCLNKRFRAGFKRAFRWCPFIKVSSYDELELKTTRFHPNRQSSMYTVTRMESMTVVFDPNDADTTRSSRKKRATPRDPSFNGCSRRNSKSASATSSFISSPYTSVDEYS
How it was run: as §1

With COCC[C@H](NC(=O)[C@H](CC(C)C)N(C)C(=O)CNC(=O)[C@@H](NC(=O)[C@H](Cc1ccc(O)cc1)NC(=O)[C@H](CCCCN)NC(=O)[C@H](CCC(=O)O)NC(=O)COCCOCCNC(=O)COCCOCCNC(=O)CC[C@H](NC(=O)CCCCCCCCCCCCCCCCC(=O)O)C(=O)O)[C@@H](C)O)C(N)=O [compound 381, *Glu;Lys;Tyr;Thr;Gly;NmLeu;Metox;NH2] ({C18 diacid-γGlu-AEEA-AEEA}-EKYTG[NMeL][hSer](Me)-NH2) the EC50 [1] was 9.3 nM, the “hNK2R, IP3 Efficacy” value [1] was 85% and the “hNK1R, IP3 Efficacy” value [2] was 0%. The “hNK3, IP3 Efficacy” value ([3]; COS-7 cells) was 0%.
With “*Asp;Lys;Pro;Val;Gly;NmLeu;Nle;NH2 ({Conj‑Neu‑C18DA}-DKPVG[NMeL][Nle]-NH2; reading uncertain; also: printed as *Asp;Lys;Pro;Val;Gly;NmLeu;Nle;NH2) [compound 362, * is Conj-Neu-C18DA protractor on N-terminal α-amino group]” the “hNK2R receptor activation, in words” value [1] was “complete loss of receptor activation on NK1-3Rs”, the “hNK2R, IP3 Efficacy” value [1] was 0% and the “hNK1R receptor activation, in words” value [2] was “complete loss of receptor activation on NK1-3Rs”. For the same compound, the “hNK1R, IP3 Efficacy” value [2] was 0%, the “hNK3R receptor activation, in words” value [3] was “complete loss of receptor activation on NK1-3Rs” and the “hNK3, IP3 Efficacy” value ([3]; COS-7 cells) was 0%.
CCCC[C@H](NC(=O)[C@H](CC(C)C)N(C)C(=O)CNC(=O)[C@H](CO)NC(=O)[C@H](Cc1ccc(O)cc1)NC(=O)[C@H](CCCCN)NC(=O)[C@H](CC(=O)O)NC(=O)COCCOCCNC(=O)COCCOCCNC(=O)CC[C@H](NC(=O)CCCCCCCCCCCCCCCCC(=O)O)C(=O)O)C(N)=O [compound 386, *Asp;Lys;Tyr;Ser;Gly;NmLeu;Nle;NH2] ({C18 diacid-γGlu-AEEA-AEEA}-DKYSG[NMeL][Nle]-NH2) was tested, and the EC50 [1] was 29 nM, the “hNK2R, IP3 Efficacy” value [1] was 63% and the “hNK1R, IP3 Efficacy” value [2] was 0%. The “hNK3, IP3 Efficacy” value ([3]; COS-7 cells) was 0%.
“*Asp;Lys;dPhe;Val;Gly;NmLeu;Nle;NH2 (DKFVGLL; N-terminal Conj-Neu-C18DA protractor; C-terminal amide; (1)..(1) Conj-Neu-C18; MOD_RES (3)..(3) D-Phe; MOD_RES (6)..(6) N-methyl-Leucine; MOD_RES (7)..(7) AMIDATION; MOD_RES (7)..(7) Nle) [compound 356, * is Conj-Neu-C18DA protractor on N-terminal α-amino group]” was tested, and the “hNK2R receptor activation, in words” value [1] was “completely destroys NK2R activation”, the “hNK2R, IP3 Efficacy” value [1] was 0% and the “hNK1R, IP3 Efficacy” value [2] was 0%. For the same compound, the “hNK3, IP3 Efficacy” value ([3]; COS-7 cells) was 0%.
For CCCC[C@H](NC(=O)[C@H](CC(C)C)NC(=O)CCNC(=O)[C@@H](NC(=O)[C@H](Cc1ccccc1)NC(=O)[C@H](CO)NC(=O)[C@H](CC(=O)O)NC(=O)[C@@H](NC(=O)[C@H](CCCCN)NC(=O)COCCOCCNC(=O)COCCOCCNC(=O)CC[C@H](NC(=O)CCCCCCCCCCCCCCCCC(=O)O)C(=O)O)[C@@H](C)O)C(C)C)C(N)=O [compound 322, *Lys;Thr;Asp;Ser;Phe;Val;bAla;Leu;Nle;NH2] ({C18 diacid-γGlu-AEEA-AEEA}-KTDSFV[βAla]L[Nle]-NH2), the EC50 [1] was about 130 nM, the “hNK2R, IP3 Efficacy” value [1] was 53% and the “hNK1R, IP3 Efficacy” value [2] was 0%. For the same compound, the EC50 ([3]; COS-7 cells, 0.2% ovalbumin buffer, read-out: hNK3, IP3 EC50) was about 160 nM and the “hNK3, IP3 Efficacy” value ([3]; COS-7 cells) was 80%.
CCCC[C@H](NC(=O)[C@H](CC(C)C)N(C)C(=O)CNC(=O)[C@@H](NC(=O)[C@H](Cc1ccc(O)cc1)NC(=O)[C@H](CCCNC(=N)N)NC(=O)[C@H](CCC(=O)O)NC(=O)COCCOCCNC(=O)COCCOCCNC(=O)CC[C@H](NC(=O)CCCCCCCCCCCCCCCCC(=O)O)C(=O)O)C(C)C)C(N)=O [compound 357, *Glu;Arg;Tyr;Val;Gly;NmLeu;Nle;NH2] ({C18 diacid-γGlu-AEEA-AEEA}-ERYVG[NMeL][Nle]-NH2) was tested, and the EC50 [1] was 6.5 nM, the “hNK2R, IP3 Efficacy” value [1] was 90% and the “hNK1R, IP3 Efficacy” value [2] was 50%. The “hNK3, IP3 Efficacy” value ([3]; COS-7 cells) was 10%.
With CCCC[C@H](NC(=O)[C@H](CC(C)C)N(C)C(=O)CNC(=O)[C@@H](NC(=O)[C@H](Cc1ccc(O)cc1)NC(=O)[C@H](CCCCN)NC(=O)[C@@H](N)CC(=O)O)C(C)C)C(N)=O [compound 374, Asp;Lys;Tyr;Val;Gly;NmLeu;Nle;NH2] (H-DKYVG[NMeL][Nle]-NH2) the EC50 [1] was 5.8 nM, the “hNK2R, IP3 Efficacy” value [1] was 90% and the EC50 [2] was 200 nM. The “hNK1R, IP3 Efficacy” value [2] was 50% and the “hNK3, IP3 Efficacy” value ([3]; COS-7 cells) was 0%.
In the case of CCCC[C@H](NC(=O)[C@H](CC(C)C)N(C)C(=O)CNC(=O)[C@@H](NC(=O)[C@H](Cc1ccc(O)cc1)NC(=O)[C@H](CCCCN)NC(=O)[C@H](CC(=O)O)NC(=O)COCCOCCNC(=O)COCCOCCNC(=O)CC[C@H](NC(=O)CCCCCCCCCCCCCCC(=O)O)C(=O)O)C(C)C)C(N)=O [compound 367, *Asp;Lys;Tyr;Val;Gly;NmLeu;Nle;NH2] ({C16 diacid-γGlu-AEEA-AEEA}-DKYVG[NMeL][Nle]-NH2), the EC50 [1] is reported as 5.6 nM, the “hNK2R, IP3 Efficacy” value [1] is reported as 75% and the EC50 [2] is reported as about 31000 nM. The “hNK1R, IP3 Efficacy” value [2] was 20% and the “hNK3, IP3 Efficacy” value ([3]; COS-7 cells) was 0%.
CCCC[C@H](NC(=O)[C@H](CC(C)C)N(C)C(=O)CNC(=O)[C@H](CCCNC(=N)N)NC(=O)[C@H](Cc1ccccc1)NC(=O)[C@H](CCCCN)NC(=O)[C@H](CCC(=O)O)NC(=O)COCCOCCNC(=O)COCCOCCNC(=O)CC[C@H](NC(=O)CCCCCCCCCCCCCCCCC(=O)O)C(=O)O)C(N)=O [compound 315, *Glu;Lys;Phe;Arg;Gly;NmLeu;Nle;NH2] ({C18 diacid-γGlu-AEEA-AEEA}-EKFRG[NMeL][Nle]-NH2) was tested, and the EC50 [1] was 47 nM, the “hNK2R, IP3 Efficacy” value [1] was 60% and the “hNK1R, IP3 Efficacy” value [2] was 0%. For the same compound, the “hNK3, IP3 Efficacy” value ([3]; COS-7 cells) was 0%.
